According to ChEMBL document CHEMBL1157136, “Design and synthesis of cyclic disulfide-bonded antibacterial peptides on the basis of the alpha helical domain of Tenecin 1, an insect defensin” (Bioorg Med Chem, 2008):
Values after ≈ are worked out from the molar mass of the structure shown. Where a SMILES comes first, the peptide text is derived from it. Bridges are numbered along the chain shown (N, C = ends).

Columns and labels:
Pseudomonas aeruginosa [1] = experiment: Antimicrobial activity against Pseudomonas aeruginosa after 24 hrs by microdilution technique in high salt condition; type: functional
Staphylococcus aureus [2] = experiment: Antimicrobial activity against Staphylococcus aureus after 24 hrs by microdilution technique in absence of NaCl; type: functional
Micrococcus luteus [3] = experiment: Antimicrobial activity against Micrococcus luteus after 24 hrs by microdilution technique in high salt condition; type: functional
Candida albicans [4] = experiment: Antimicrobial activity against Candida albicans after 24 hrs by microdilution technique in absence of NaCl; type: functional
Escherichia coli [5] = experiment: Antimicrobial activity against Escherichia coli after 24 hrs by microdilution technique in high salt condition; type: functional
Escherichia coli [6] = experiment: Antimicrobial activity against Escherichia coli after 24 hrs by microdilution technique in absence of NaCl; type: functional
Staphylococcus aureus [7] = experiment: Antimicrobial activity against Staphylococcus aureus after 24 hrs by microdilution technique in high salt condition; type: functional
Pseudomonas aeruginosa [8] = experiment: Antimicrobial activity against Pseudomonas aeruginosa after 24 hrs by microdilution technique in absence of NaCl; type: functional
Erythrocyte = experiment: Hemolytic activity in human red blood cells after 1 hrs; type: functional
Micrococcus luteus [9] = experiment: Antimicrobial activity against Micrococcus luteus after 24 hrs by microdilution technique in absence of NaCl; type: functional
Candida albicans [10] = experiment: Antimicrobial activity against Candida albicans after 24 hrs by microdilution technique in high salt condition; type: functional
[11] = Effect on leakage from large unilamellar vesicles containing phosphatidylglycerol/phosphatidyl choline assessed as release of entrapped dye at 50 uM; type: physicochemical

| Structure (SMILES) | MIC (Pseudomonas aeruginosa [1]) | MIC (Staphylococcus aureus [2]) | MIC (Micrococcus luteus [3]) | MIC (Candida albicans [4]) | MIC (Escherichia coli [5]) | MIC (Escherichia coli [6]) | MIC (Staphylococcus aureus [7]) | MIC (Pseudomonas aeruginosa [8]) | HC50 (Erythrocyte) | MIC (Micrococcus luteus [9]) | MIC (Candida albicans [10]) | Activity [11] |
| --- | --- | --- | --- | --- | --- | --- | --- | --- | --- | --- | --- | --- |
| CC(C)C[C@H](NC(=O)[C@H](CS)NC(=O)[C@H](Cc1cnc[nH]1)NC(=O)[C@H](C)NC(=O)[C@H](C)NC(=O)[C@H](CS)NC(=O)[C@H](C)NC(=O)[C@H](C)NC(=O)[C@@H](N)CC(=O)O)C(=O)N[C@@H](Cc1c[nH]c2ccccc12)C(=O)N[C@@H](CCCNC(=N)N)C(N)=O (H-DAACAAHCLWR-NH2) | > 200 µg/mL | > 200 µg/mL | > 200 µg/mL | > 200 µg/mL | > 200 µg/mL | > 200 µg/mL | > 200 µg/mL | > 200 µg/mL | >200 µg/mL | > 200 µg/mL | > 200 µg/mL | – |
| CC(C)C[C@H](NC(=O)[C@@H]1CSSC[C@H](NC(=O)[C@H](C)NC(=O)[C@H](C)NC(=O)[C@@H](N)CC(=O)O)C(=O)N[C@@H](C)C(=O)N[C@@H](C)C(=O)N[C@@H](Cc2cnc[nH]2)C(=O)N1)C(=O)N[C@@H](Cc1c[nH]c2ccccc12)C(=O)N[C@@H](CCCNC(=N)N)C(N)=O (H-DAACAAHCLWR-NH2; disulfide 4-8) | > 200 µg/mL | > 200 µg/mL | > 200 µg/mL | – | > 200 µg/mL | > 200 µg/mL | > 200 µg/mL | > 200 µg/mL | >200 µg/mL | > 200 µg/mL | > 200 µg/mL | – |
| CC(C)C[C@H](NC(=O)[C@H](CS)NC(=O)[C@H](CCCCN)NC(=O)[C@H](C)NC(=O)[C@H](C)NC(=O)[C@H](CS)NC(=O)[C@H](C)NC(=O)[C@H](C)NC(=O)[C@@H](N)CC(=O)O)C(=O)N[C@@H](Cc1c[nH]c2ccccc12)C(=O)N[C@@H](CCCNC(=N)N)C(N)=O (H-DAACAAKCLWR-NH2) | > 200 µg/mL | 200 µg/mL (≈ 166 µM) | > 200 µg/mL | – | > 200 µg/mL | 200 µg/mL (≈ 166 µM) | > 200 µg/mL | > 200 µg/mL | >200 µg/mL | 200 µg/mL (≈ 166 µM) | > 200 µg/mL | – |
| CC(C)C[C@H](NC(=O)[C@@H]1CSSC[C@H](NC(=O)[C@H](C)NC(=O)[C@H](C)NC(=O)[C@@H](N)CC(=O)O)C(=O)N[C@@H](C)C(=O)N[C@@H](C)C(=O)N[C@@H](CCCCN)C(=O)N1)C(=O)N[C@@H](Cc1c[nH]c2ccccc12)C(=O)N[C@@H](CCCNC(=N)N)C(N)=O (H-DAACAAKCLWR-NH2; disulfide 4-8) | > 200 µg/mL | > 200 µg/mL | > 200 µg/mL | – | > 200 µg/mL | > 200 µg/mL | > 200 µg/mL | > 200 µg/mL | >200 µg/mL | > 200 µg/mL | > 200 µg/mL | – |
| CC(C)C[C@H](NC(=O)[C@H](CS)NC(=O)[C@H](Cc1cnc[nH]1)NC(=O)[C@H](C)NC(=O)[C@H](C)NC(=O)[C@H](CS)NC(=O)[C@H](C)NC(=O)[C@H](C)NC(=O)[C@@H](N)CCCCN)C(=O)N[C@@H](Cc1c[nH]c2ccccc12)C(=O)N[C@@H](CCCNC(=N)N)C(N)=O (H-KAACAAHCLWR-NH2) [listing 1 of 2 here] | – | – | – | – | – | – | – | – | – | – | – | 70% |
| CC(C)C[C@H](NC(=O)[C@H](CS)NC(=O)[C@H](Cc1cnc[nH]1)NC(=O)[C@H](C)NC(=O)[C@H](C)NC(=O)[C@H](CS)NC(=O)[C@H](C)NC(=O)[C@H](C)NC(=O)[C@@H](N)CCCCN)C(=O)N[C@@H](Cc1c[nH]c2ccccc12)C(=O)N[C@@H](CCCNC(=N)N)C(N)=O (H-KAACAAHCLWR-NH2) [listing 2 of 2 here] | > 200 µg/mL | 50 µg/mL | > 200 µg/mL | – | > 200 µg/mL | 50 µg/mL | > 200 µg/mL | 100 µg/mL | >200 µg/mL | 25 µg/mL | > 200 µg/mL | – |
| CC(C)C[C@H](NC(=O)[C@@H]1CSSC[C@H](NC(=O)[C@H](C)NC(=O)[C@H](C)NC(=O)[C@@H](N)CCCCN)C(=O)N[C@@H](C)C(=O)N[C@@H](C)C(=O)N[C@@H](Cc2cnc[nH]2)C(=O)N1)C(=O)N[C@@H](Cc1c[nH]c2ccccc12)C(=O)N[C@@H](CCCNC(=N)N)C(N)=O (H-KAACAAHCLWR-NH2; disulfide 4-8) | > 200 µg/mL | 100 µg/mL | 100 µg/mL | – | > 200 µg/mL | > 200 µg/mL | 100 µg/mL | > 200 µg/mL | >200 µg/mL | 100 µg/mL | > 200 µg/mL | 20% |
| CC(C)C[C@H](NC(=O)[C@H](CS)NC(=O)[C@H](CCCCN)NC(=O)[C@H](C)NC(=O)[C@H](C)NC(=O)[C@H](CS)NC(=O)[C@H](C)NC(=O)[C@H](C)NC(=O)[C@@H](N)CCCCN)C(=O)N[C@@H](Cc1c[nH]c2ccccc12)C(=O)N[C@@H](CCCNC(=N)N)C(N)=O (H-KAACAAKCLWR-NH2) | > 200 µg/mL | 50 µg/mL (≈ 41 µM) | 200 µg/mL | – | > 200 µg/mL | 50 µg/mL (≈ 41 µM) | 100 µg/mL | 100 µg/mL (≈ 82 µM) | >200 µg/mL | 25 µg/mL (≈ 20.5 µM) | > 200 µg/mL | – |
| CC(C)C[C@H](NC(=O)[C@@H]1CSSC[C@H](NC(=O)[C@H](C)NC(=O)[C@H](C)NC(=O)[C@@H](N)CCCCN)C(=O)N[C@@H](C)C(=O)N[C@@H](C)C(=O)N[C@@H](CCCCN)C(=O)N1)C(=O)N[C@@H](Cc1c[nH]c2ccccc12)C(=O)N[C@@H](CCCNC(=N)N)C(N)=O (H-KAACAAKCLWR-NH2; disulfide 4-8) | > 200 µg/mL | 50 µg/mL (≈ 41.1 µM) | 200 µg/mL | – | 200 µg/mL | 50 µg/mL (≈ 41.1 µM) | > 200 µg/mL | > 200 µg/mL | >200 µg/mL | 50 µg/mL (≈ 41.1 µM) | > 200 µg/mL | – |
